# Reference: patent US6562804B2, “Hair-growing agent” (Kyowa Hakko Kogyo Co., Ltd., priority 2001, dated 2003)
# Test system: mouse hair follicle epithelial cells
# Experiment: Cell growth-promoting effect on cultured mouse hair follicle epithelial cells (MTT)
# Format: cell-based
# Conditions: C3H mouse hair follicle epithelial cells, 5 days culture, DMSO control = 100
# Protocol: Mouse hair follicle epithelial cells were separated and cultured according to a modification of the method of Tanigaki, et al. [Archives of Dermatological Research, 284, 290-296 (1992)].
# The skin on the back of a 4-days-old C3H mouse (Charles River Japan, Inc.) was cut off and treated with MEM (Eagle's Minimum Essential Medium) containing 500 units/ml Dispase (Godo Shusei Co., Ltd.) and 5% fetal calf serum (FCS) at 4° C. for 16 hours.
# Then, the epidermis was stripped from the skin section, and the obtained dermis layer was treated with DMEM (Dulbecco's modified Eagle Medium) containing 0.25% Collagenase N-2 (Nitta Gelatin Co., Ltd.) and 10% FCS at 37° C. for one hour to obtain a dermis suspension. The dermis suspension was filtered through a 212-μm nylon mesh (Nippon Rikagaku Kikai Co., Ltd.) and the filtrate was centrifuged at 1000 rpm for 5 minutes to obtain pellets containing hair follicle tissue. To the pellets was added calcium/magnesium-free PBS (Dulbecco's Phosphate-Buffered Saline) and the pellets were suspended therein using a pipette. The resulting suspension was allowed to stand for 15 minutes to precipitate hair follicle tissue. The same procedure as above (addition of calcium/magnesium-free PBS, suspending by use of a pipette, and precipitation by allowing the suspension to stand for 15 minutes) was repeated three times using the obtained hair follicle tissue.
# Then, the hair follicle tissue was treated with a solution containing 0.1% ethylenediaminetetraacetic acid (EDTA) and 0.25% trypsin (Gibco) at 37° C. for 5 minutes. To the resulting mixture was added DMEM containing 10% FCS to prepare a hair follicle tissue cell suspension having a density of 3×10^5 cells/ml. The hair follicle tissue cell suspension was put into wells of a 24-well collagen-coated plate (Iwaki Glass Co., Ltd.) in an amount of 1 ml/well, followed by culturing in 5% CO2 at 37° C. for 24 hours.
# During the culturing, the medium was replaced with a fresh one every other day.
# As a control, the cells were cultured in the same medium as above except that DMSO alone was added in an amount of 1/100 by volume in place of DMSO containing a phosphatidic acid, and/or procyanidin B-2 or dl-α-tocopherol.
# The degree of cell growth was measured according to the method using MTT [3-(4,5-dimethylthiazol-2-yl)-2,5-diphenyl tetrazolium bromide]
# To each well of the 24-well microplate (2 cm^2/well) was added a PBS solution of MTT (5 mg/ml) in an amount of 1/10 by volume based on 1 ml of the culture. The plate was shaken to make the mixture homogeneous, followed by culturing in 5% CO2 at 37° C. for 4 hours.
SMILES,Relative cell growth rate based on the control as 100 (active ingredient 1 μmol/l),Relative cell growth rate based on the control as 100 (active ingredient 30 μmol/l)
CCCCCCCCCCCCCCCCOCC(COP(=O)(O)O)OC (centres unmarked) [1-O-hexadecyl-2-O-methylglyceryl-3-phosphoric acid],177,–
"Oc1cc(O)c2c(c1)O[C@H](c1ccc(O)c(O)c1)[C@H](O)[C@H]2c1c(O)cc(O)c2c1O[C@H](c1ccc(O)c(O)c1)[C@H](O)C2 [Procyanidin B-2, epicatechin-(4β→8)-epicatechin]",–,310
CCCCCCCCCCCCCCCCOCC(COP(=O)(O)O)OC(C)=O (centres unmarked) [1-O-hexadecyl-2-O-acetylglyceryl-3-phosphoric acid],155,–
"Cc1c(C)c2c(c(C)c1O)CCC(C)(CCCC(C)CCCC(C)CCCC(C)C)O2 (racemic) [dl-α-Tocopherol, dl-α-tocopherol, reference compound]",–,184
CCCCCCCC/C=C\CCCCCCCC(=O)OCC(COP(=O)(O)O)OC (centres unmarked) [1-O-oleoyl-2-O-methylglyceryl-3-phosphoric acid],163,–
